We go through one compound from PMC5663395, “Chemical Validation of Methionyl-tRNA Synthetase as a Druggable Target in Leishmania donovani” (ACS Infectious Diseases, 2017).

Data set [1] in a line: pKa measurement (Sirius T3, UV-metric). It counts as physicochemical. As for the experimental part:
calculated, both in terms of pEC50 values. MIC (minimum inhibitory concentration) values are defined as the lowest concentration tested at which maximal inhibition is reached.
THP-1 cells were differentiated in 96-well plates with PMA as described above. Following differentiation the cells were treated for 30 min with dose-response curves of test compounds in presence of 100 nM LysoTracker Red DND-99 (Thermo Fisher) and 5 µg/ml Hoechst 33342. Next cells were washed 3 times with Hanks Buffered Saline Solution (Gibco) and imaged on a Perkin Elmer Operetta system. An image analysis algorithm to measure mean Lysotracker Red DND-99 intensity per cell was developed in Columbus. […]
To measure the pKa of DDD806905, a fast UV-metric method was performed using a Sirius T3 instrument (Sirius Analytical, U.K.). The calculation of the pKa was determined using the Sirius T3 refine software (Sirius Analytical, U.K.). In brief, the UV-metric pKa method is based on measuring pH during an acid-base titration and monitoring UV absorbance shift. […] The appearance of precipitate was monitored throughout the experiment by a turbidity sensing device. […] The pKas of DDD806905 was determined at the pH where there was maximal change in UV absorbance with respect to pH. […]
LogD7.4 values were quantified using a Sirius T3 instrument (Sirius Analytical, U.K.). […]

The nature of data set [2]: Plasma protein binding, equilibrium dialysis, human plasma. It is filed as in vitro ADME. As to conditions: read-out: fu (unbound fraction). As for the experimental part:
which gave the best fit to the data was then recorded as the logP. Using the logP and an experimentally determined pKa (see above), the software generated a lipophilicity plot showing changes in the logD with increasing pH and from this plot a logD7.3 and logD5.6 values were recorded.
Plasma Protein Binding Determination
A 96-well equilibrium dialysis apparatus was used to determine the free fraction in plasma for DDD806905 (HT Dialysis LLC, Gales Ferry, CT). Membranes (12-14 kDA cut-off) were conditioned in deionised water for 60 minutes, followed by conditioning in 80:20 deionised water:ethanol for 20 minutes, and then rinsed in isotonic buffer before use. Female CD1 mouse plasma or human plasma was removed from the freezer and allowed to thaw on the day of experiment. Thawed plasma was then centrifuged (Allegra X12-R, Beckman Coulter, USA), spiked with test compound (final concentration 10 μg/ml), and 150 μL aliquots (n=6 replicate determinations) loaded into the 96-well equilibrium dialysis plate. […] All samples were analysed by UPLC-MS/MS on a Quattro Premier XE Mass Spectrometer (Waters Corporation, USA).
The unbound fraction (fu) was determined as the ratio of the peak area in buffer to that in plasma. […]
(In equilibrium dialysis free small molecules cross a membrane that holds back macromolecules.)

A short description of data set [3]: Mouse pharmacokinetics integrated in efficacy study (blood levels). As to conditions: female, BALB/c, whole blood, po, 50 mg/kg; for AUC(0-t): AUC(0-8h); for AUC(0-t) / Cmax: infected mice, 50 mg/kg oral; for Cmax: Cmax in blood.

Each structure is given as a SMILES string.

On to `Cl.Cl.O=c1nc(NCCCNCc2cc3c(Cl)cc(Cl)cc3[nH]2)[nH]c2ccccc12` [DDD806905, 2-((3-(((4,6-dichloro-1H-indol-2-yl)methyl)amino)propyl)amino)quinazolin-4(1H)-one dihydrochloride], for which the entries for the “compound present in un-ionized state” value in data set [1] (pH 5.6) and in data set [1] (pH 7.3) were roughly 0% and 0.01%, respectively. The fraction unbound (commonly free concentration divided by total concentration) at 5 h, 10 μg/ml in data set [2] was determined as 0.007. The Tmax (commonly the time from dosing to the highest level) in data set [3] turned out to be 2 h. Moreover, the exposure AUC(0-t) (usually the area under the concentration-time curve up to a stated or last time point) is 15800 ng·h/mL in data set [3] (day 1) and 23300 ng·h/mL in data set [3] (day 10). The Cmax (as a rule, the peak of the concentration-time curve) in data set [3] (first dose day 1) came out at 2600 ng/mL; in data set [3] (first dose day 10), 3200 ng/mL.
